These are literature values, as cited in patent US11123368B2, “Immunosuppressive blood cells and methods of producing the same” (Universitatsklinikum Heidelberg, priority 2008, dated 2021).

The test system of the series is multiple sclerosis. As to conditions: clinical trials.

With glatiramer acetate, the “relapse rate of MS” value was “significantly reduced”. For the same substance, the progression of disability result (MS) is reported as “slowed progression of disability”.
